Patent US20220289679A1, “HETEROCYCLIC COMPOUND” (Takeda Pharmaceutical Company Limited, priority 2019, published 2022)

These compounds were tested against T1, human GCS (glucosylceramide synthase) (Homo sapiens, UniProt Q16739) (assay: Glucosylceramide Synthase (GCS) Assay). Settings: test compound 10 μM; microsome fraction of Expi293F cells expressing human GCS; 1.7 μM UDP-glucose, 3 μM C8 ceramide; room temperature 60 min; C8 glucosylceramide by Rapidfire MS/MS; read-out: GCS enzyme inhibitory rate at 10 μM (%).
T1 construct: made in house; host or cells: Expi293F cells (transient expression; microsome fraction)
T1 sequence (Q16739 1-394): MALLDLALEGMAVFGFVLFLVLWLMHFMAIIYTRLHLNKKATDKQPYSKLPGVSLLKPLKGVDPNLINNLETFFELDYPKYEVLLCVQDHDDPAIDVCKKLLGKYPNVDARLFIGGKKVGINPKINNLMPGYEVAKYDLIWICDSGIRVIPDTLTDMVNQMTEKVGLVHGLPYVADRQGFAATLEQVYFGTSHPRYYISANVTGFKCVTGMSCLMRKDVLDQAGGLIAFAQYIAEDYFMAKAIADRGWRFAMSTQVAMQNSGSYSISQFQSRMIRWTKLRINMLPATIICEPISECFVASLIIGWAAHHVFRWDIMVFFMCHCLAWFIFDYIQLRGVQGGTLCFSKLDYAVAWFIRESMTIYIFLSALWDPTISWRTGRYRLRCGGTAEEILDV
Assay type: biochemical
Outline: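 Test compounds were run at a final 10 μM against liposomal C8 ceramide (3 μM) and UDP-glucose at its Km (1.7 μM). Human GCS came as microsomes from transfected Expi293F cells, incubated 60 min at room temperature, pH 7.5. Product measured by RapidFire MS/MS; 0% and 100% inhibition were DMSO and no-enzyme wells.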

| inhibition at 10 µM [%] | SMILES |
| --- | --- |
| 100 | O=C(Nc1ccc(C(O)(C(F)F)C(F)F)nc1)c1ccnn(-c2ccc(F)cc2OCC(F)(F)F)c1=O [Example 117, 2-[4-fluoro-2-(2,2,2-trifluoroethoxy)phenyl]-3-oxo-N-[6-(1,1,3,3-tetrafluoro-2-hydroxypropan-2-yl)pyridin-3-yl]-2,3-dihydropyridazine-4-carboxamide] |
| 100 | O=C(Nc1ccc(C(O)(C(F)F)C(F)F)cc1)c1ccnn(-c2ccccc2OCC(F)F)c1=O [Example 153, 2-[2-(2,2-difluoroethoxy)phenyl]-3-oxo-N-[4-(1,1,3,3-tetrafluoro-2-hydroxypropan-2-yl)phenyl]-2,3-dihydropyridazine-4-carboxamide] |
| 99 | CC(C)(C#N)c1ccc(NC(=O)c2cccn(-c3ccc(F)cc3OCC(F)(F)F)c2=O)cn1 [Example 87, N-[6-(2-cyanopropan-2-yl)pyridin-3-yl]-1-[4-fluoro-2-(2,2,2-trifluoroethoxy)phenyl]-2-oxo-1,2-dihydropyridine-3-carboxamide] |
| 97 | CC(C)(O)Cn1cc(C(=O)Nc2ccc(C(O)(C(F)F)C(F)F)nc2)c(=O)c(-c2ccccc2OCC(F)F)n1 [Example 178, 6-[2-(2,2-difluoroethoxy)phenyl]-2-(2-hydroxy-2-methylpropyl)-5-oxo-N-[6-(1,1,3,3-tetrafluoro-2-hydroxypropan-2-yl)pyridin-3-yl]-2,5-dihydropyridazine-4-carboxamide] |
| 82 | CC(C)(O)c1ccc(NC(=O)c2cccn(-c3cc(F)ccc3OCC(F)(F)F)c2=O)cn1 [Example 125, 1-[5-fluoro-2-(2,2,2-trifluoroethoxy)phenyl]-N-[6-(2-hydroxypropan-2-yl)pyridin-3-yl]-2-oxo-1,2-dihydropyridine-3-carboxamide] |
| 53 | COc1cc(C(C)(C)O)ccc1NC(=O)c1cc(C)nn(-c2ccccc2OCC(F)F)c1=O [Example 151, 2-[2-(2,2-difluoroethoxy)phenyl]-N-[4-(2-hydroxypropan-2-yl)-2-methoxyphenyl]-6-methyl-3-oxo-2,3-dihydropyridazine-4-carboxamide] |
| 100 | O=C(Nc1ccc(C(O)(C(F)F)C(F)F)cc1)c1cn(C2COC2)nc(-c2ccccc2OCC(F)F)c1=O [Example 184, 6-[2-(2,2-difluoroethoxy)phenyl]-2-(oxetan-3-yl)-5-oxo-N-[4-(1,1,3,3-tetrafluoro-2-hydroxypropan-2-yl)phenyl]-2,5-dihydropyridazine-4-carboxamide] |
| 99 | CC(C)(O)c1ccc(NC(=O)c2cccn(-c3ccc(F)cc3OCC(F)(F)F)c2=O)cc1 [Example 42, 1-[4-fluoro-2-(2,2,2-trifluoroethoxy)phenyl]-N-[4-(2-hydroxypropan-2-yl)phenyl]-2-oxo-1,2-dihydropyridine-3-carboxamide] |
| 99 | O=C(Nc1ccc(C2CC2)cn1)c1cccn(-c2ccccc2OCC(F)(F)F)c1=O [Example 21, N-(5-cyclopropylpyridin-2-yl)-2-oxo-1-[2-(2,2,2-trifluoroethoxy)phenyl]-1,2-dihydropyridine-3-carboxamide] |
| 100 | O=C(Nc1ccc(C(O)(C(F)F)C(F)F)cc1)c1cn(CC2COC2)nc(-c2ccccc2OCC(F)F)c1=O [Example 175, 6-[2-(2,2-difluoroethoxy)phenyl]-2-[(oxetan-3-yl)methyl]-5-oxo-N-[4-(1,1,3,3-tetrafluoro-2-hydroxypropan-2-yl)phenyl]-2,5-dihydropyridazine-4-carboxamide] |
| 98 | CC(C)(O)COc1ccc(NC(=O)c2cn(C(F)F)nc(-c3ccccc3OCC(F)F)c2=O)cc1 [Example 165, 6-[2-(2,2-difluoroethoxy)phenyl]-2-(difluoromethyl)-N-[4-(2-hydroxy-2-methylpropoxy)phenyl]-5-oxo-2,5-dihydropyridazine-4-carboxamide] |
| 76 | COc1cc(F)ccc1-n1nccc(C(=O)Nc2ccc(Oc3ccccc3)cc2)c1=O [Example 18, 2-(4-fluoro-2-methoxyphenyl)-3-oxo-N-(4-phenoxyphenyl)-2,3-dihydropyridazine-4-carboxamide] |
